HELM strings list units from the 5' end as sugar, base in round brackets, then linkage (d deoxyribose, r ribose, m 2'-O-methyl, p phosphodiester). Strings are as the collection lists them, not checked against the first reports. ss, as = sense and antisense strand; [s4r] = 4'-thioribose
Conditions: siRNA
Further: test system not given here.

Substance	target mRNA knockdown [%]
RNA1{[s4r](C)p.[s4r](G)p.[s4r](U)p.[s4r](A)p.[s4r](C)p.[s4r](G)p.r(C)p.r(G)p.r(G)p.r(A)p.r(A)p.r(U)p.r(A)p.[s4r](C)p.[s4r](U)p.[s4r](U)p.[s4r](C)p.[s4r](G)p.[s4r](A)p.r(T)p.r(T)}|RNA2{[s4r](U)p.[s4r](C)p.[s4r](G)p.[s4r](A)p.[s4r](A)p.[s4r](G)p.r(U)p.r(A)p.r(U)p.r(U)p.r(C)p.r(C)p.r(G)p.[s4r](C)p.[s4r](G)p.[s4r](U)p.[s4r](A)p.[s4r](C)p.[s4r](G)p.r(T)p.r(T)}$$$RNA1{StrandType:ss}|RNA2{StrandType:as}$	0
RNA1{[s4r](C)p.[s4r](G)p.[s4r](U)p.[s4r](A)p.[s4r](C)p.[s4r](G)p.r(C)p.r(G)p.r(G)p.r(A)p.r(A)p.r(U)p.r(A)p.[s4r](C)p.[s4r](U)p.[s4r](U)p.[s4r](C)p.[s4r](G)p.[s4r](A)p.r(T)p.r(T)}|RNA2{[s4r](U)p.[s4r](C)p.r(G)p.r(A)p.r(A)p.r(G)p.r(U)p.r(A)p.r(U)p.r(U)p.r(C)p.r(C)p.r(G)p.r(C)p.r(G)p.r(U)p.r(A)p.[s4r](C)p.[s4r](G)p.r(T)p.r(T)}$$$RNA1{StrandType:ss}|RNA2{StrandType:as}$	28.6
RNA1{[s4r](C)p.[s4r](G)p.[s4r](U)p.[s4r](A)p.[s4r](C)p.[s4r](G)p.r(C)p.r(G)p.r(G)p.r(A)p.r(A)p.r(U)p.r(A)p.[s4r](C)p.[s4r](U)p.[s4r](U)p.[s4r](C)p.[s4r](G)p.[s4r](A)p.r(T)p.r(T)}|RNA2{r(G)p.r(C)p.r(G)p.r(A)p.r(A)p.r(G)p.r(U)p.r(A)p.r(U)p.r(U)p.r(C)p.r(C)p.r(G)p.r(C)p.r(G)p.r(U)p.r(A)p.[s4r](C)p.[s4r](G)p.r(T)p.r(T)}$$$RNA1{StrandType:ss}|RNA2{StrandType:as}$	74.2
RNA1{[s4r](C)p.[s4r](G)p.[s4r](U)p.[s4r](A)p.[s4r](C)p.[s4r](G)p.r(C)p.r(G)p.r(G)p.r(A)p.r(A)p.r(U)p.r(A)p.[s4r](C)p.[s4r](U)p.[s4r](U)p.[s4r](C)p.[s4r](G)p.[s4r](A)p.r(T)p.r(T)}|RNA2{r(U)p.r(C)p.r(G)p.r(A)p.r(A)p.r(G)p.r(U)p.r(A)p.r(U)p.r(U)p.r(C)p.r(C)p.r(G)p.r(C)p.r(G)p.[s4r](U)p.[s4r](A)p.[s4r](C)p.[s4r](G)p.r(T)p.r(T)}$$$RNA1{StrandType:ss}|RNA2{StrandType:as}$	44.4
RNA1{[s4r](C)p.[s4r](G)p.[s4r](U)p.[s4r](A)p.[s4r](C)p.[s4r](G)p.r(C)p.r(G)p.r(G)p.r(A)p.r(A)p.r(U)p.r(A)p.[s4r](C)p.[s4r](U)p.[s4r](U)p.[s4r](C)p.[s4r](G)p.[s4r](A)p.r(T)p.r(T)}|RNA2{r(U)p.r(C)p.r(G)p.r(A)p.r(A)p.r(G)p.r(U)p.r(A)p.r(U)p.r(U)p.r(C)p.r(C)p.r(G)p.r(C)p.r(G)p.r(U)p.r(A)p.r(C)p.r(G)p.r(T)p.r(T)}$$$RNA1{StrandType:ss}|RNA2{StrandType:as}$	91.5
RNA1{[s4r](C)p.[s4r](G)p.[s4r](U)p.[s4r](A)p.[s4r](C)p.[s4r](G)p.r(C)p.r(G)p.r(G)p.r(A)p.r(A)p.r(U)p.r(A)p.r(C)p.r(U)p.r(U)p.r(C)p.r(G)p.r(A)p.r(T)p.r(T)}|RNA2{r(U)p.r(C)p.r(G)p.r(A)p.r(A)p.r(G)p.r(U)p.r(A)p.r(U)p.r(U)p.r(C)p.r(C)p.r(G)p.[s4r](C)p.[s4r](G)p.[s4r](U)p.[s4r](A)p.[s4r](C)p.[s4r](G)p.r(T)p.r(T)}$$$RNA1{StrandType:ss}|RNA2{StrandType:as}$	47.8
RNA1{[s4r](C)p.[s4r](G)p.[s4r](U)p.[s4r](A)p.[s4r](C)p.[s4r](G)p.r(C)p.r(G)p.r(G)p.r(A)p.r(A)p.r(U)p.r(A)p.r(C)p.r(U)p.r(U)p.r(C)p.r(G)p.r(A)p.r(T)p.r(T)}|RNA2{r(U)p.r(C)p.r(G)p.r(A)p.r(A)p.r(G)p.r(U)p.r(A)p.r(U)p.r(U)p.r(C)p.r(C)p.r(G)p.r(C)p.r(G)p.r(U)p.r(A)p.r(C)p.r(G)p.r(T)p.r(T)}$$$RNA1{StrandType:ss}|RNA2{StrandType:as}$	94
RNA1{[s4r](C)p.[s4r](G)p.[s4r](U)p.[s4r](A)p.r(C)p.r(G)p.r(C)p.r(G)p.r(G)p.r(A)p.r(A)p.r(U)p.r(A)p.r(C)p.r(U)p.[s4r](U)p.[s4r](C)p.[s4r](G)p.[s4r](A)p.r(T)p.r(T)}|RNA2{[s4r](U)p.[s4r](C)p.[s4r](G)p.[s4r](A)p.r(A)p.r(G)p.r(U)p.r(A)p.r(U)p.r(U)p.r(C)p.r(C)p.r(G)p.r(C)p.r(G)p.[s4r](U)p.[s4r](A)p.[s4r](C)p.[s4r](G)p.r(T)p.r(T)}$$$RNA1{StrandType:ss}|RNA2{StrandType:as}$	0
RNA1{[s4r](C)p.[s4r](G)p.[s4r](U)p.[s4r](A)p.r(C)p.r(G)p.r(C)p.r(G)p.r(G)p.r(A)p.r(A)p.r(U)p.r(A)p.r(C)p.r(U)p.[s4r](U)p.[s4r](C)p.[s4r](G)p.[s4r](A)p.r(T)p.r(T)}|RNA2{[s4r](U)p.[s4r](C)p.r(G)p.r(A)p.r(A)p.r(G)p.r(U)p.r(A)p.r(U)p.r(U)p.r(C)p.r(C)p.r(G)p.r(C)p.r(G)p.r(U)p.r(A)p.[s4r](C)p.[s4r](G)p.r(T)p.r(T)}$$$RNA1{StrandType:ss}|RNA2{StrandType:as}$	87.7
RNA1{[s4r](C)p.[s4r](G)p.[s4r](U)p.[s4r](A)p.r(C)p.r(G)p.r(C)p.r(G)p.r(G)p.r(A)p.r(A)p.r(U)p.r(A)p.r(C)p.r(U)p.[s4r](U)p.[s4r](C)p.[s4r](G)p.[s4r](A)p.r(T)p.r(T)}|RNA2{r(U)p.r(C)p.r(G)p.r(A)p.r(A)p.r(G)p.r(U)p.r(A)p.r(U)p.r(U)p.r(C)p.r(C)p.r(G)p.r(C)p.r(G)p.[s4r](U)p.[s4r](A)p.[s4r](C)p.[s4r](G)p.r(T)p.r(T)}$$$RNA1{StrandType:ss}|RNA2{StrandType:as}$	88.1
RNA1{[s4r](C)p.[s4r](G)p.[s4r](U)p.[s4r](A)p.r(C)p.r(G)p.r(C)p.r(G)p.r(G)p.r(A)p.r(A)p.r(U)p.r(A)p.r(C)p.r(U)p.[s4r](U)p.[s4r](C)p.[s4r](G)p.[s4r](A)p.r(T)p.r(T)}|RNA2{r(U)p.r(C)p.r(G)p.r(A)p.r(A)p.r(G)p.r(U)p.r(A)p.r(U)p.r(U)p.r(C)p.r(C)p.r(G)p.r(C)p.r(G)p.r(U)p.r(A)p.[s4r](C)p.[s4r](G)p.r(T)p.r(T)}$$$RNA1{StrandType:ss}|RNA2{StrandType:as}$	92
RNA1{[s4r](C)p.[s4r](G)p.[s4r](U)p.[s4r](A)p.r(C)p.r(G)p.r(C)p.r(G)p.r(G)p.r(A)p.r(A)p.r(U)p.r(A)p.r(C)p.r(U)p.[s4r](U)p.[s4r](C)p.[s4r](G)p.[s4r](A)p.r(T)p.r(T)}|RNA2{r(U)p.r(C)p.r(G)p.r(A)p.r(A)p.r(G)p.r(U)p.r(A)p.r(U)p.r(U)p.r(C)p.r(C)p.r(G)p.r(C)p.r(G)p.r(U)p.r(A)p.r(C)p.r(G)p.r(T)p.r(T)}$$$RNA1{StrandType:ss}|RNA2{StrandType:as}$	94.7
RNA1{[s4r](C)p.[s4r](G)p.[s4r](U)p.[s4r](A)p.r(C)p.r(G)p.r(C)p.r(G)p.r(G)p.r(A)p.r(A)p.r(U)p.r(A)p.r(C)p.r(U)p.r(U)p.r(C)p.r(G)p.r(A)p.r(T)p.r(T)}|RNA2{[s4r](U)p.[s4r](C)p.r(G)p.r(A)p.r(A)p.r(G)p.r(U)p.r(A)p.r(U)p.r(U)p.r(C)p.r(C)p.r(G)p.r(C)p.r(G)p.r(U)p.r(A)p.[s4r](C)p.[s4r](G)p.r(T)p.r(T)}$$$RNA1{StrandType:ss}|RNA2{StrandType:as}$	85.4
RNA1{[s4r](C)p.[s4r](G)p.[s4r](U)p.[s4r](A)p.r(C)p.r(G)p.r(C)p.r(G)p.r(G)p.r(A)p.r(A)p.r(U)p.r(A)p.r(C)p.r(U)p.r(U)p.r(C)p.r(G)p.r(A)p.r(T)p.r(T)}|RNA2{r(U)p.r(C)p.r(G)p.r(A)p.r(A)p.r(G)p.r(U)p.r(A)p.r(U)p.r(U)p.r(C)p.r(C)p.r(G)p.r(C)p.r(G)p.[s4r](U)p.[s4r](A)p.[s4r](C)p.[s4r](G)p.r(T)p.r(T)}$$$RNA1{StrandType:ss}|RNA2{StrandType:as}$	86.1
RNA1{[s4r](C)p.[s4r](G)p.[s4r](U)p.[s4r](A)p.r(C)p.r(G)p.r(C)p.r(G)p.r(G)p.r(A)p.r(A)p.r(U)p.r(A)p.r(C)p.r(U)p.r(U)p.r(C)p.r(G)p.r(A)p.r(T)p.r(T)}|RNA2{r(U)p.r(C)p.r(G)p.r(A)p.r(A)p.r(G)p.r(U)p.r(A)p.r(U)p.r(U)p.r(C)p.r(C)p.r(G)p.r(C)p.r(G)p.r(U)p.r(A)p.r(C)p.r(G)p.r(T)p.r(T)}$$$RNA1{StrandType:ss}|RNA2{StrandType:as}$	94.2
RNA1{[s4r](C)p.[s4r](G)p.r(U)p.r(A)p.r(C)p.r(G)p.r(C)p.r(G)p.r(G)p.r(A)p.r(A)p.r(U)p.r(A)p.r(C)p.r(U)p.r(U)p.r(C)p.[s4r](G)p.[s4r](A)p.r(T)p.r(T)}|RNA2{[s4r](U)p.[s4r](C)p.r(G)p.r(A)p.r(A)p.r(G)p.r(U)p.r(A)p.r(U)p.r(U)p.r(C)p.r(C)p.r(G)p.r(C)p.r(G)p.r(U)p.r(A)p.[s4r](C)p.[s4r](G)p.r(T)p.r(T)}$$$RNA1{StrandType:ss}|RNA2{StrandType:as}$	85.3
RNA1{[s4r](C)p.[s4r](G)p.r(U)p.r(A)p.r(C)p.r(G)p.r(C)p.r(G)p.r(G)p.r(A)p.r(A)p.r(U)p.r(A)p.r(C)p.r(U)p.r(U)p.r(C)p.[s4r](G)p.[s4r](A)p.r(T)p.r(T)}|RNA2{r(U)p.r(C)p.r(G)p.r(A)p.r(A)p.r(G)p.r(U)p.r(A)p.r(U)p.r(U)p.r(C)p.r(C)p.r(G)p.r(C)p.r(G)p.r(U)p.r(A)p.[s4r](C)p.[s4r](G)p.r(T)p.r(T)}$$$RNA1{StrandType:ss}|RNA2{StrandType:as}$	92.1
RNA1{[s4r](C)p.[s4r](G)p.r(U)p.r(A)p.r(C)p.r(G)p.r(C)p.r(G)p.r(G)p.r(A)p.r(A)p.r(U)p.r(A)p.r(C)p.r(U)p.r(U)p.r(C)p.[s4r](G)p.[s4r](A)p.r(T)p.r(T)}|RNA2{r(U)p.r(C)p.r(G)p.r(A)p.r(A)p.r(G)p.r(U)p.r(A)p.r(U)p.r(U)p.r(C)p.r(C)p.r(G)p.r(C)p.r(G)p.r(U)p.r(A)p.r(C)p.r(G)p.r(T)p.r(T)}$$$RNA1{StrandType:ss}|RNA2{StrandType:as}$	95.3
